Measured values published in patent US20170087174A1, “COMBINATION THERAPY REGIMEN FOR TREATMENT OF HCV” (JANSSEN PHARMACEUTICALS, INC., priority 2015, published 2017).
Read-outs that look alike come from different tables or passages of the source.

Assays:
[1] = PK of single agents vs fixed dose combinations (FDC), single oral dose in healthy volunteers; assay type: in vivo, human; conditions: for Cmax / AUC(0-t) / AUC(0-inf) / Tmax: human, plasma, oral; for Cmax: read-out: Cmax (mean ± SD); for AUC(0-t): read-out: AUClast (mean ± SD); for AUC(0-inf): read-out: AUC∞ (mean ± SD); for Tmax: read-out: tmax (median [range])
Method: SMV (100 mg), ODV (50 mg), and Compound (III) (800 mg) were administered as three different formulations or together as single doses in vivo to healthy volunteers. The arms of the study included: • Arm 1 (Reference Arm): Single oral doses of single agents, one SMV 100-mg capsule, one ODV 50-mg tablet as granule layered solid dispersion with copovidone and poloxamers, and two Compound (III) 400-mg tablets, administered together. • Arm 2: Single oral dose of fixed dose combination (FDC02): SMV 100 mg+ODV 50 mg as a spray dried solid dispersion with HPMC-AS L in a ratio ODV/HPMC-AS L 1/1 w/w+Compound (III) 800 mg • Arm 3: Single oral dose of fixed dose combination (FDC04): SMV 100 mg+ODV 50 mg as a spray dried solid dispersion with HPMC-AS L in a ratio ODV/HPMC-AS L 1/3 w/w+Compound (III) 800 mg • Arm 4: Single oral dose of fixed dose combination (FDC01): SMV 100 mg+ODV 50 mg as a spray dried solid dispersion with copovidone and poloxamers+Compound (III) 800 mg
PK parameters, including Cmax, tmax, AUClast, and AUC∞ were measured for Compound (III), ODV, SMV, and metabolites Compound A-I and Compound A-3 for each Arm of the study. Arms that included fixed dose combinations (FDC) (Arm 2, Arm 3, and Arm 4) were then compared to a single oral dose (Arm 1, the reference Arm). Table 9, Table 10, Table 11, Table 12 and Table 13 display relevant PK parameters and FIG. 9, FIG. 10, FIG. 11, FIG. 12, and FIG. 13 depict the plasma concentration over time of SMV, ODV, Compound A-1, and Compound A-3 for each Arm of the study.

[2] = Phase 2a open-label combination study: pharmacokinetics (exposure); assay type: in vivo, human; conditions: in vivo
Method: A randomized, Phase 2a, open-label study was carried out to evaluate the safety, pharmacokinetics and efficacy of the combination of Compound (III), Odalasvir and Simeprevir in Genotype 1 treatment-naïve subjects with chronic hepatitis C. Other treatment-naïve subjects included Genotype 2, 3, 4, 5 and 6.
The aim of the study was to determine the efficacy, pharmacokinetics (PK), and safety of Compound (III)+Odalasvir±SMV in HCV-infected subjects.
This was an open-label study evaluating various dosing regimens of Compound (III)+Odalasvir±SMV for 6-8 weeks in treatment-naïve HCV-infected subjects with varying clinical characteristics (e.g., GT 1 or 3, presence/absence of compensated Child Pugh A cirrhosis). Efficacy, PK and safety evaluations were conducted during and through 24 weeks post dosing. Up to 15 cohorts were enrolled; data was generated from cohorts that have completed dosing.

[3] = tested on: CYP (cytochrome P450 enzymes); assay: CYP inhibition in vitro
[4] = Arm 1 (reference): single agents together
[5] = Arm 2 (FDC02) vs reference (Arm 1)
[6] = Arm 3 (FDC04) vs reference (Arm 1)
[7] = Arm 4 (FDC01) vs reference (Arm 1)
[8] = Arm 1 (reference): single agents together, SMV 100-mg capsule, ODV 50-mg tablet, two Compound (III) 400-mg tablets
[9] = Arm 2: FDC02, SMV 100 mg + ODV 50 mg (ODV/HPMC-AS L 1/1 w/w) + Compound (III) 800 mg
[10] = Arm 3: FDC04, SMV 100 mg + ODV 50 mg (ODV/HPMC-AS L 1/3 w/w) + Compound (III) 800 mg
[11] = Arm 4: FDC01, SMV 100 mg + ODV 50 mg (copovidone and poloxamers) + Compound (III) 800 mg

Row | SMILES | t1/2term (mean ± SD) [1, 4] [h] | Least Square Means Ratio, AUClast [1, 5] [%] | Least Square Means Ratio, Cmax [1, 5] [%] | t1/2term (mean ± SD) ([1]; Arm 2: FDC02) [h] | Least Square Means Ratio, AUClast [1, 6] [%] | Least Square Means Ratio, Cmax [1, 6] [%] | t1/2term (mean ± SD) ([1]; Arm 3: FDC04) [h] | Least Square Means Ratio, AUClast [1, 7] [%] | Least Square Means Ratio, Cmax [1, 7] [%] | t1/2term (mean ± SD) ([1]; Arm 4: FDC01) [h] | Cmax [1, 8] [ng/mL] | AUC(0-t) [1, 4] [ng·h/mL] | AUC(0-inf) [1, 4] [ng·h/mL] | Tmax [1, 4] [h] | Cmax [1, 9] [ng/mL] | AUC(0-t) ([1]; Arm 2: FDC02) [ng·h/mL] | AUC(0-inf) ([1]; Arm 2: FDC02) [ng·h/mL] | Tmax ([1]; Arm 2: FDC02) [h] | Cmax [1, 10] [ng/mL] | AUC(0-t) ([1]; Arm 3: FDC04) [ng·h/mL] | other results
1 | C[C@]1(O)[C@H](n2ccc(=O)[nH]c2=O)O[C@](F)(CO)[C@H]1O [Compound A-1] | 19.6 ± 2.7 | 118.54 | 133.00 | 20.5 ± 3.3 | 121.29 | 119.83 | 20.2 ± 3.5 | 120.45 | 121.37 | 18.3 ± 3.5 | 498 ± 154 | 3910 ± 1150 | 4530 ± 1800 | 4 | 681 ± 268 | 4680 ± 1550 | 4370 ± 1340 | 4 | 598 ± 192 | 4710 ± 1310 | AUC(0-inf) ([1]; Arm 3: FDC04): 5380 ± 1560 ng·h/mL; Tmax ([1]; Arm 3: FDC04): 4 h; Cmax [1, 11]: 607 ± 208 ng/mL; AUC(0-t) ([1]; Arm 4: FDC01): 4690 ± 1420 ng·h/mL; AUC(0-inf) ([1]; Arm 4: FDC01): 4560 ± 787 ng·h/mL; Tmax ([1]; Arm 4: FDC01): 4 h; increase of exposure with dose [2]: less than proportionally; IC50 [3]: > 40 µM
2 | C[C@H](NP(=O)(O)OC[C@@]1(F)O[C@@H](n2ccc(=O)[nH]c2=O)[C@](C)(O)[C@@H]1O)C(=O)O [Compound A-3] | 2.6 ± 1.4 | 103.24 | 102.81 | 2.3 ± 0.6 | 115.78 | 119.82 | 2.9 ± 1.5 | 116.82 | 123.77 | 2.5 ± 0.7 | 163 ± 61.8 | 800 ± 307 | 823 ± 311 | 3 | 163 ± 45.2 | 790 ± 157 | 817 ± 133 | 3 | 189 ± 49.7 | 895 ± 223 | Least Square Means Ratio, AUC∞ [1, 5]: 104.40%; Least Square Means Ratio, AUC∞ [1, 6]: 114.92%; Least Square Means Ratio, AUC∞ [1, 7]: 115.62%; AUC(0-inf) ([1]; Arm 3: FDC04): 914 ± 226 ng·h/mL; Tmax ([1]; Arm 3: FDC04): 3.5 h; Cmax [1, 11]: 197 ± 62.1 ng/mL; AUC(0-t) ([1]; Arm 4: FDC01): 909 ± 244 ng·h/mL; AUC(0-inf) ([1]; Arm 4: FDC01): 926 ± 245 ng·h/mL; Tmax ([1]; Arm 4: FDC01): 4 h; IC50 [3]: > 48 µM
